This is an account of results in patent publication US12129257B1, “Imidazo[1,2-a]pyrazine compounds as CK2 inhibitors” (KING FAISAL UNIVERSITY, priority 2023, dated 2024).

pIC50: −log10 of the molar value.

The test system of test [1] is MDA-MB-231 (breast). Briefly: In vitro cytotoxic activity (MTT) assay, MDA-MB-231. Format: cell-based. The note with it: Homo sapiens; MDA-MB-231 (breast) cells, exposed for 96 hours; read-out: IC50, 50% inhibition of cell proliferation. As for the experimental part:
(§1) Compounds 1a-12a and 1b-12b were screened for their in vitro cytotoxic activity utilizing a 3-(4,5-dimethyl-thiazol-2-yl)-2,5-diphenyltetrazolium bromide (MTT) assay against selected cancer human cell lines consisting of PC3 (prostate), HCT116 (colon), A375 (melanoma), H1299 (lung), MIAPaCa-2 (pancreas), HL60 (leukemia), MCF7 (breast), MDA-MB-231 (breast) (T. Mosmann, J. Immunol. Meth., 1983, 65, 55-63). The cells were cultured at 37° C. in RMPI1640 medium supplemented with 10% fetal bovine serum, 50 IU/mL penicillin, and 50 μg/mL streptomycin in a 5% CO2 incubator. All cells were sub-cultured 3 times/week by trypsinisation. Viable cells were seeded and allowed to adhere for 12 h before a test drug was added in 96-well plates at an initial density of 1.0×10^5 cells/mL. Tumor cell lines were separately exposed to various concentrations of the tested compounds followed by incubation at a temperature of 37° C. during 96 hours inside a medium of fresh RMPI1640. Cells were subsequently incubated at 37° C. using MTT at 0.5 mg/mL during 4 hours. After removal of supernatant, formazan crystals were dissolved in isopropanol and the optical density was measured at 570 nm. CX-4945 was used as a positive control.

Test [2] has as its system H1299 (lung). Description: In vitro cytotoxic activity (MTT) assay, H1299. Format: cell-based. The note with it: Homo sapiens, NCI-H1299; H1299 (lung) cells, exposed for 96 hours; read-out: IC50, 50% inhibition of cell proliferation. As for the experimental part:
as §1

The test system of test [3] is HCT116 (colon). Description: In vitro cytotoxic activity (MTT) assay, HCT116. To be noted: Homo sapiens, HCT-116; HCT116 (colon) cells, exposed for 96 hours; read-out: IC50, 50% inhibition of cell proliferation. Format: cell-based. As for the experimental part:
as §1

The subject of test [4] is HL60 (leukemia). Description: In vitro cytotoxic activity (MTT) assay, HL60. Format: cell-based. The note with it: Homo sapiens, HL-60; HL60 (leukemia) cells, exposed for 96 hours; read-out: IC50, 50% inhibition of cell proliferation. On the procedure:
as §1

Test [5] concerns the target T1, recombinant human CK2 (RRBB-holoenzyme) (Homo sapiens, UniProt P68400).
T1 construct: purchased Millipore
Briefly: CK2 Kinase Assay (33P-ATP, filter plate). The note with it: recombinant human CK2, final ATP concentration 15 μM, 10 min at 30° C.; read-out: protein kinase CK2 activity IC50. Format: biochemical. On the procedure:
CK2 Kinase Assay was conducted using the protocol as described in Pierre F. et al; J. Med. Chem. 2011, 54, 635-654. The tested compounds in aqueous solution were added at a volume of 10 μL to a reaction mixture comprising 10 μL of assay dilution buffer (ADB; 20 mM MOPS, pH 7.2, 25 mM β-glycerol phosphate, 5 mM EGTA, 1 mM sodium orthovanadate, and 1 mM dithiothreitol), 10 μL of substrate peptide (RRRDDDSDDD, dissolved in ADB at a concentration of 1 mM), 10 μL of recombinant human CK2 (RRBB-holoenzyme, 25 ng dissolved in ADB; Millipore). Reactions were initiated by the addition of 10 μL of ATP solution (90%75 mMMgCl2, 75 μM ATP (final ATP concentration: 15 μM) dissolved in ADB; 10% [γ-33P] ATP (stock 1mCi/100 μL; 3000 Ci/mmol (Perkin-Elmer) and maintained for 10 min at 30° C. The reactions were quenched with 100 μL of 0.75% phosphoric acid and then transferred to and filtered through a phosphor cellulose filter plate (Millipore). After washing each well five times with 0.75% phosphoric acid, the plate was dried under vacuum for 5 min and, following the addition of 15 μL of scintillation fluid to each well, the residual radioactivity was measured using a Wallac luminescence counter. The IC50 values were derived from eight concentrations of test inhibitors.

Test [6] relates to A375 (melanoma). Briefly: In vitro cytotoxic activity (MTT) assay, A375. Format: cell-based. The note with it: Homo sapiens, A-375; A375 (melanoma) cells, exposed for 96 hours; read-out: IC50, 50% inhibition of cell proliferation. As for the experimental part:
as §1

In test [7] the test system is PC3 (prostate). Description: In vitro cytotoxic activity (MTT) assay, PC3. Format: cell-based. The note with it: Homo sapiens, Prostate cell; PC3 (prostate) cells, exposed for 96 hours; read-out: IC50, 50% inhibition of cell proliferation. As for the experimental part: as §1
Test [8] has as its system MIAPaCa-2 (pancreas). Briefly: In vitro cytotoxic activity (MTT) assay, MIAPaCa-2. The note with it: Homo sapiens, MIA PaCa-2; MIAPaCa-2 (pancreas) cells, exposed for 96 hours; read-out: IC50, 50% inhibition of cell proliferation. Format: cell-based. As for the experimental part: as §1
Test [9] concerns MCF7 (breast). Description: In vitro cytotoxic activity (MTT) assay, MCF7. The note with it: Homo sapiens; MCF7 (breast) cells, exposed for 96 hours; read-out: IC50, 50% inhibition of cell proliferation. Format: cell-based. As for the experimental part: as §1

T1 sequence (P68400 whole entry): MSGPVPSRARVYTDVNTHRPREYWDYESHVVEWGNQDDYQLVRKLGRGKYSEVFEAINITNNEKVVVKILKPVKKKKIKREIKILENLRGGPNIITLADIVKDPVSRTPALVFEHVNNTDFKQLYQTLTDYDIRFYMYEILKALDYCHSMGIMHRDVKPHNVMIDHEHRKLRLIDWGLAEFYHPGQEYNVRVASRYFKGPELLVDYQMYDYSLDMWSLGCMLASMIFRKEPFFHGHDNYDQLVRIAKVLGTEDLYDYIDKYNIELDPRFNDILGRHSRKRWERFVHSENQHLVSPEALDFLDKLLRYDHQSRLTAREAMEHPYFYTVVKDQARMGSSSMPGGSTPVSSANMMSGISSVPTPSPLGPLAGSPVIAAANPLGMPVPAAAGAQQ
T1 sequence (P67870 whole entry partner): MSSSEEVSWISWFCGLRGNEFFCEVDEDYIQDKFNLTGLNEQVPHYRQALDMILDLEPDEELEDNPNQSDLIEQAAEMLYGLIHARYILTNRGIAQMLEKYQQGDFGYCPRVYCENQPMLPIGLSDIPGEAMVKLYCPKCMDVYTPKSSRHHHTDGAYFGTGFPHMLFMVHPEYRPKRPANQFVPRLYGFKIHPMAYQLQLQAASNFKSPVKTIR

In the case of `FC(F)(F)c1cccc(Nc2c(-c3ccncn3)nc3cnccn23)c1` [Compound 2b, 2-(pyrimidin-4-yl)-N-(3-(trifluoromethyl)phenyl)imidazo[1,2-a]pyrazin-3-amine], the pIC50 was 5.38 in test [1]; 5.92 in [2]; 5.82 in [3]; 5.35 in [4]; 7.01 in test [5]; 5.46 in test [6]. The pIC50 was 5.85 in test [7], 5.80 in test [8] and 5.30 in test [9].

For `O=C(O)c1ccc2c(c1)nc(Nc1cccc(Cl)c1)c1ccncc12` [CX-4945, Silmitasertib, reference compound], the pIC50 in test [1] was 5.21; in test [2] it was 5.64; in [3], 5.64; in test [4], 5.43; in [6], 5.39; in test [7], 5.70. Besides, the pIC50 in [8] was 6.00; in [9], 5.04.

`FC(F)(F)c1cccc(Nc2c(-c3ccncc3)nc3cnccn23)c1` [Compound 3a, 2-(pyridin-4-yl)-N-(3-(trifluoromethyl)phenyl)imidazo[1,2-a]pyrazin-3-amine]: the pIC50 in [1] was 5.34; in test [2], 5.82; in [3] it was 5.77; in test [4], 5.36; in [5] it was 6.94; in test [6], 5.47. Further, the values for the pIC50 in [7], in [8] and in [9] were 5.92, 5.89 and 5.29, respectively.
